Measured values taken from ChEMBL document CHEMBL4725281, “Design synthesis and evaluation of novel aldose reductase inhibitors: The case of indolyl-sulfonyl-phenols” (Bioorg Med Chem, 2020).

Legend:
[1] = target: Aldo-keto reductase family 1 member B1 (Rattus norvegicus, UniProt P07943); experiment: Inhibition of Fischer 344 rat eye lens ALR2 using D,L-glyceraldehyde as substrate measured up to 4 mins at 30 degC using NaHCO3/DMSO-dissolved compound by spectrophotometric analysis
[2] = target: Aldo-keto reductase family 1 member B1 (Rattus norvegicus) (UniProt P07943); experiment: Inhibition of Fischer 344 rat eye lens ALR2 using D,L-glyceraldehyde as substrate measured up to 4 mins at 30 degC NaHCO3/DMSO-dissolved compound at 100 uM by spectrophotometric analysis relative to control; conditions: time min <=4
Rattus norvegicus = species on record: Rattus norvegicus; experiment: Selectivity index, ratio of IC50 for Fischer 344 rat kidney ALR1 using sodium D-glucuronate as substrate measured up to 4 mins at 30 degC to IC50 for Fischer 344 rat eye lens ALR2 using D,L-glyceraldehyde as substrate measured up to 4 mins at 30 degC; conditions: time min <=4
[3] = target: Aldo-keto reductase family 1 member A1 (Rattus norvegicus, UniProt P51635); experiment: Inhibition of Fischer 344 rat kidney ALR1 using sodium D-glucuronate as substrate measured up to 4 mins at […] using NaHCO3/DMSO-dissolved compound by spectrophotometric analysis
Aldo-keto reductase family 1 member A1, sequence (P51635 whole entry, looked up): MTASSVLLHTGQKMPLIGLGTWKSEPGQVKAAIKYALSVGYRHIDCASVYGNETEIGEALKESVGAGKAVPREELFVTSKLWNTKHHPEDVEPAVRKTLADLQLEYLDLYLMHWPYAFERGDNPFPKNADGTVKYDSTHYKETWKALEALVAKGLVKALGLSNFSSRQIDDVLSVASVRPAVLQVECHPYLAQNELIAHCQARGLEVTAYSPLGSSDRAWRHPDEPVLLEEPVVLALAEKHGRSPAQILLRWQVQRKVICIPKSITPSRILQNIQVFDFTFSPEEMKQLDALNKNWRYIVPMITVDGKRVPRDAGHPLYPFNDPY

SMILES	IC50 [1] [µM]	inhibition [2] [%]	Ratio IC50 (Rattus norvegicus)	IC50 [3] [µM]
O=S(=O)(c1ccc(O)cc1)c1cc2ccccc2[nH]1	37.3			
O=S(=O)(c1ccc(O)cc1)c1c[nH]c2ccccc12	59.6			
O=S(=O)(c1ccccc1O)c1c[nH]c2ccccc12		14.6		
O=S(=O)(c1ccc(O)cc1)n1ccc2ccccc21	4.51		1.05	4.73
O=S(=O)(c1ccccc1O)n1ccc2ccccc21	14.2			
O=S(=O)(c1ccc(O)c(F)c1)n1ccc2ccccc21	0.98		11.9	11.7
O=S(=O)(c1cc2ccccc2[nH]1)c1ccccc1O		12.3		
